Data as given in patent publication US20180265423A1, “Pesticide Dispersion in Concentrated Aqueous Fertilizer Solution” (priority 2014, published 2018).
Read-outs that look alike come from different tables or passages of the source.

Columns and labels:
[1] = assay type: physicochemical; conditions: for crystal growth in the fertilizer solutions tested: review of table 2
Source text: Crystal formation in a suspension concentrate is a complex phenomenon. It is believed that if the solubility of the suspended solid chemical is high in the medium, the suspension concentrate is prone to form crystals of the suspended solid chemical in storage. […] The concentrations of the solid pesticides used in this example were low (at a typical ready-to-apply concentration range). If a solid pesticide forms crystals in such a low concentration, it is not suitable for a ready-to-apply pesticide suspension and mostly likely will not be suitable for a more concentrated suspension in fertilizer. […] By “not suitable” is meant that although it may work to some extent, it is not a good candidate for the pesticide SC.
Samples were prepared by adding the components followed by hand-shaking.

[2] = Quick screening of crystal growth potential in fertilizer concentrates and water, solid pesticides containing a carboxylic acid group (Example 2); assay type: physicochemical; conditions: for suitability for suspension in fertilizer solutions: review of table 3
Protocol: Samples were prepared by adding the components followed by hand-shaking. Samples were placed at 0° C. and observation was made after 1 day, unless otherwise specified.

[3] = Study of additional surfactants in 10-34-0, 27-4-0 and diluted 10-34-0 fertilizers (Example 8); assay type: physicochemical
[4] = 1 wt % powder pesticide, 98 wt % 10-34-0, 1 wt % Witcolate D-510
[5] = 1 wt % powder pesticide, 98 wt % 40% AMS, 1 wt % Witcolate D-510
[6] = 1 wt % powder pesticide, 98 wt % URAN 32, 1 wt % Witcolate D-510
[7] = 1 wt % powder pesticide, 98 wt % Water, 1 wt % Witcolate D-510
[8] = powder pesticide (glyphosate acid 2, 2,4-D acid 1.3, others 1 wt %) in 10-34-0, no wetting agent
[9] = powder pesticide (glyphosate acid 2, 2,4-D acid 1.3, others 1 wt %) in 10-34-0, no wetting agent, 0° C., 1 day unless otherwise specified
[10] = powder pesticide (glyphosate acid 2, 2,4-D acid 1.3, others 1 wt %) in 40% AMS, no wetting agent
[11] = powder pesticide (glyphosate acid 2, 2,4-D acid 1.3, others 1 wt %) in 40% AMS, no wetting agent, 0° C., 1 day unless otherwise specified
[12] = powder pesticide (glyphosate acid 2, 2,4-D acid 1.3, others 1 wt %) in URAN 32, no wetting agent, 0° C., 1 day unless otherwise specified
[13] = powder pesticide (glyphosate acid 2, 2,4-D acid 1.3, others 1 wt %) in Water, no wetting agent
[14] = powder pesticide (glyphosate acid 2, 2,4-D acid 1.3, others 1 wt %) in Water, no wetting agent, 0° C., 1 day unless otherwise specified
[15] = 1 wt % powder pesticide in 99 wt % 10-34-0, no wetting agent
[16] = 1 wt % powder pesticide in 99 wt % 40% AMS, no wetting agent
[17] = 1 wt % powder pesticide in 99 wt % URAN 32, no wetting agent
[18] = 1 wt % powder pesticide in 99 wt % Water, no wetting agent
[19] = 30 wt % powder pesticide in 70 wt % 10-34-0, no wetting agent

Molecule | Comment: suitability [1, 4] | Comment: powder sank or floated [1, 5] | Comment: suitability [1, 5] | Comment: powder sank or floated [1, 6] | Comment: suitability [1, 6] | Comment: powder sank or floated [1, 7] | Comment: suitability [1, 7] | crystal growth in the fertilizer solutions tested [1] | Comment: suitability [1, 15] | Comment: suitability [1, 16] | Comment: suitability [1, 17] | Comment: suitability [1, 18] | other results
Cc1c(COC(=O)[C@@H]2[C@H](/C=C(\Cl)C(F)(F)F)C2(C)C)cccc1-c1ccccc1 (racemic) [Bifenthrin] | Suitable | sank | Suitable | floated | Suitable | sank | Suitable | did not have crystal growth | – | – | – | – | Comment: powder sank or floated [1, 4]: floated
O=C(O)COc1ccc(Cl)cc1Cl [2,4-D acid] | – | – | – | – | – | – | – | – | – | – | – | – | Comment: suitability [2, 8]: particles. Not suitable; Comment: crystal growth or other change [2, 9]: Crystal growth between powder; Comment: dissolution [2, 9]: Not dissolved; Comment: powder sank or floated [2, 9]: Powder sank; Comment: suitability [2, 10]: particles. Not suitable; Comment: crystal growth or other change [2, 11]: Crystal growth between powder; Comment: dissolution [2, 11]: Not dissolved; Comment: powder sank or floated [2, 11]: Powder sank; Comment: suitability ([2]; powder pesticide (glyphosate acid 2, 2,4-D acid 1.3, others 1 wt %) in URAN 32, no wetting agent): particles. Not suitable; Comment: crystal growth or other change [2, 12]: Crystal growth between powder; Comment: dissolution [2, 12]: Not dissolved; Comment: powder sank or floated [2, 12]: Powder sank; Comment: suitability [2, 13]: particles. Not suitable; Comment: crystal growth or other change [2, 14]: Crystal growth between powder; Comment: dissolution [2, 14]: Not dissolved; Comment: powder sank or floated [2, 14]: Powder sank; suitability for suspension in fertilizer solutions [2]: may not be suitable
CCCCC(CC)COC(=O)CC(C(=O)OCC(CC)CCCC)S(=O)(=O)O.[Na] (stereo not shown) [Aerosol AOT-75, sodium bis (2-ethyl hexyl) sulfosuccinate] | – | – | – | – | – | – | – | – | – | – | – | – | Surfactant Suitability ([3]; 27-4-0 99, surfactant 1 wt): Not suitable; suitability for the fertilizers tested ([3]; review of table 10): not suitable
CCNc1nc(Cl)nc(NC(C)C)n1 [Atrazine] | Suitable | floated | Suitable | floated | Suitable | sank | Suitable | did not have crystal growth | Suitable | Suitable | Suitable | Suitable | Comment: powder sank or floated [1, 15]: floated; Comment: powder sank or floated [1, 17]: floated; Comment: powder sank or floated [1, 4]: floated
COc1c(Cl)ccc(Cl)c1C(=O)O [Dicamba acid] | – | – | – | – | – | – | – | – | – | – | – | – | Comment: suitability [2, 8]: Not suitable; Comment: crystal growth or other change [2, 9]: Crystal formed at bottom at 0 C.; Comment: crystal growth or other change [2, 11]: Oily drop formed at bottom.; Comment: dissolution [2, 12]: Dissolved; Comment: suitability [2, 13]: Not suitable; Comment: crystal growth or other change [2, 14]: Crystal formed at 0 C. and; suitability for suspension in fertilizer solutions [2]: may not be suitable
CN(C)C(=O)Nc1ccc(Cl)c(Cl)c1 [Diuron] | Suitable | sank | Suitable | sank | Suitable | sank | Suitable | did not have crystal growth | Suitable | Suitable | Suitable | Suitable | Comment: powder sank or floated [1, 15]: sank and some floated.; Comment: powder sank or floated [1, 17]: sank
O=C(O)CNCP(=O)(O)O [Glyphosate acid] | – | – | – | – | – | – | – | – | – | – | – | – | Comment: dissolution [2, 19]: Powder not dissolved. Powder; Comment: suitability [2, 19]: at room temp. Not suitable; Comment: crystal growth or other change ([2]; 30 wt % powder pesticide in 70 wt % 10-34-0, no wetting agent, at room temp): Crystal growth on container wall; Comment: dissolution [2, 9]: Dissolved at room temp; Comment: suitability [2, 10]: Not suitable; Comment: dissolution [2, 11]: Dissolved; Comment: crystal growth or other change [2, 14]: Crystal growth at room temp; Comment: dissolution [2, 14]: Not dissolved; suitability for suspension in fertilizer solutions [2]: may not be suitable
O=[N+]([O-])NC1=NCCN1Cc1ccc(Cl)nc1 [Imidaclopid] | Suitable | sank | Suitable | – | Not suitable | sank | Suitable | did not have crystal growth | Suitable | Suitable | Not suitable | Suitable | solubility in URAN 32 [1]: high solubility; Comment: dissolution [1, 17]: Dissolved; Comment: dissolution [1, 6]: Dissolved
CCCCC(C#N)(Cn1cncn1)c1ccc(Cl)cc1 (stereo not shown) [Myclobutanil] | Suitable | floated | Suitable | floated | Suitable | sank | Suitable | did not have crystal growth | Suitable | Suitable | Suitable | Suitable | Comment: powder sank or floated [1, 15]: floated; Comment: powder sank or floated [1, 16]: sank; Comment: powder sank or floated [1, 17]: floated; Comment: powder sank or floated [1, 18]: sank; Comment: powder sank or floated [1, 4]: floated
CCCCCCCCCCCC(=O)OCCOCCOCCOCCOCCOCCOCCOCCOCCOCCOCCOCCOCCOCCOCCOCCOCCOCCOCCOCCOCC(OCCOCCOCCOCCOCCOCCOCCOCCOCCOCCOCCOCCOCCOCCOCCOCCOCCOCCOCCOCCO)C1OCC(OCCOCCOCCOCCOCCOCCOCCOCCOCCOCCOCCOCCOCCOCCOCCOCCOCCOCCOCCOCCO)C1OCCOCCOCCOCCOCCOCCOCCOCCOCCOCCOCCOCCOCCOCCOCCOCCOCCOCCOCCOCCO (stereo not shown) [Tween 20, Polysorbate-20] | – | – | – | – | – | – | – | – | – | – | – | – | Appearance ([3]; 27-4-0 99.4, surfactant 0.6 wt): Clear
C810-3EO sulfate [C810-3EO sulfate (40%)] | – | – | – | – | – | – | – | – | – | – | – | – | Appearance ([3]; 27-4-0 89.4, surfactant 10.6 wt): Clear
